Measured values published in patent US20230321083A1, “Inhibitors of GPR174 and Uses Thereof” (Omeros Corporation, priority 2016, published 2023).

Experiments:
[1] = biological target: GPR174 (Homo sapiens, UniProt Q9BXC1); experiment: CRE-Luc reporter Gs signaling assay, cells transfected with GPR174; format: cell-based; design: host or cells: HEK293 or CHO cell lines (ATCC); details: CRE-Luc reporter
Procedure: (§1) Compounds were tested in the reporter system with increasing concentrations of GPR174-interacting compounds. GPR174 construct pCMV6-XL4-GPR174 or ADBR2, reporter of interest, pCRE-Luc or GL4.29 (3000 ng), and TK-renilla as an internal control (10 ng) with lipofectamine 2000 (60 ug) (Invitrogen, CA) according to the manufacturer's directions.
(§2) The DNA/lipofectamine 2000 mix (3000 μL) was incubated at room temperature for 30 minutes and then added into a 10 cm culture dish (Corning, NY) containing 70-90% confluent cultured cells, typically HEK293 or CHO cell lines (ATCC, VA), in 15 mL of media. The cells were further incubated for 4-6 hours at 37° C. and then media were removed and cells were detached with 2 mL trypsin (Life Technologies, CA). Media (26 mL) were added to the detached cells and 120 μL of transfected cells were transferred to each well on a 96-well plate. Increasing concentration of each compound in DMSO (1.2 μl) was added to the cells after plating into the 96-well plate. The cells were further incubated at 37° C. for various times. The media were removed and the cells lysed. Luciferase and renilla activities were measured with the Dual-luciferase assay system (Promega, WI) according to the manufacturer's directions. Typically, lysis buffer (25 μL) was added to the cells and incubated at room temperature for 20-30 minutes to allow for the cells to lyse. The lysate (10 μL) was measured for luciferase and renilla activity with LARII and Stop&Glo reagent (50 μL each) with a SpectraMax L (Molecular Devices, CA). Data were analyzed with either Excel (Microsoft, WA) or Prism 4.03 (GraphPad, CA).
(§3) ADBR2 is a GPCR, like GPR174, that activates the Gs signaling pathway.

[2] = system: PD-L1, TIGIT, AREG expression in human T cells; experiment: PD-L1, TIGIT and AREG expression on human T cells in PBMC cultures; format: cell-based; details: 1.25 or 5 μM; one day post-stimulation; dose-dependent
Procedure: PBMC cells from a single donor mixed with additional irradiated antigen-presenting cells (APC) and anti-CD3 antibodies (UCHT1) were incubated in the presence of various concentrations of GPR174 inhibitory compound #10 (1.25 to 5 μM) or equivalent concentrations of vehicle (DMSO). The cells were analyzed by flow cytometry for expression of CD4, CD8, PD-L1, TIGIT and AREG.

[3] = system: C57BL/6+DBA1 splenocytes; experiment: Cytokines in C57BL/6 + DBA1 splenocyte co-culture; format: cell-based, mouse; details: 30 μM; day 6 after mixing
Procedure: In order to stimulate T cells in mice, splenocytes obtained from two different mouse strains, C57BL/6 and DBA1, were mixed in culture.
The effect of compound #10 on production of cytokines (IFN-γ, IL-5, TNF-α, IL-2, IL-6, IL-4, IL-10, IL-9, IL17A, IL17F, IL-21, IL-22 and IL-13) in mouse splenocyte co-cultures was determined as follows. Splenocytes obtained from two different mouse strains, C57BL/6 and DBA1, were mixed in culture in the presence or absence of 30 μM compound #10. Cytokine production of IFN-γ, IL-5, TNF-α, IL-2, IL-6, IL-4, IL-10, IL-9, IL-17A, IL-17F, IL-21, IL-22 and IL-13 was measured in the co-culture supernatant at day 4 and day 6 after mixing. Cytokine levels were determined by LEGENDplex™ bead-based immunoassays from BioLegend (San Diego, CA) according to the manufacturer's instructions.

[4] = biological target: T1, ADBR2 (Homo sapiens, UniProt P07550); experiment: CRE-Luc reporter Gs signaling assay, control receptor ADBR2; format: cell-based
T1 construct: host or cells: HEK293 or CHO cell lines (ATCC)
T1 sequence (P07550 whole entry): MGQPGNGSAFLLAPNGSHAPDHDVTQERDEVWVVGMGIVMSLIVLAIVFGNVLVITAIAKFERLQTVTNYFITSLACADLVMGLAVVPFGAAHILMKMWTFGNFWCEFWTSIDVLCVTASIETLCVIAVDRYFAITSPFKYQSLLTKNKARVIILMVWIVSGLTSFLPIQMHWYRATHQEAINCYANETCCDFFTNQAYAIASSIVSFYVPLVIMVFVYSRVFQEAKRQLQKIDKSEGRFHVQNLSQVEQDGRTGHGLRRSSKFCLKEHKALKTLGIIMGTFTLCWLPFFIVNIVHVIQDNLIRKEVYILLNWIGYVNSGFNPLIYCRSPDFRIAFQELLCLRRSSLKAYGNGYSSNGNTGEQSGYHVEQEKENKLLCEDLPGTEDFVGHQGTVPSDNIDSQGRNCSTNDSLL
Procedure: as §1, §2, §3

Sequence of GPR174 (Q9BXC1 whole entry): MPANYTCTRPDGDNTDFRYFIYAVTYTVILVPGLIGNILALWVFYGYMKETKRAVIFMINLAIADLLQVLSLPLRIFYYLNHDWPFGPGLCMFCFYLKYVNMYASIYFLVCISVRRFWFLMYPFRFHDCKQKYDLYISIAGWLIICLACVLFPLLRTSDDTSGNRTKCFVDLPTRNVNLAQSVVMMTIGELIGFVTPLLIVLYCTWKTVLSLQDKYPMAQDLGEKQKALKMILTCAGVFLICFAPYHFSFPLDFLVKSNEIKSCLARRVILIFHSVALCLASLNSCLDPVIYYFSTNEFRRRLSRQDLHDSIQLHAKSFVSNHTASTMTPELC

CC1CCN(c2cc(N3CCN(S(=O)(=O)c4ccccc4)CC3)c([N+](=O)[O-])cc2F)CC1 [Compound 10]
effect on Gs pathway in the presence of GPR174 [1]: inhibited the Gs pathway | fraction of human CD4+ T cells with AREG positive staining [2]: reduced | fraction of human CD4+ T cells with PD-L1 positive staining [2]: reduced | fraction of human CD8+ T cells with TGIT positive staining [2]: reduced | fold induction of a panel of cytokines in splenocyte co-culture [3]: strong alteration in quantities of cytokines | effect on Gs pathway in the presence of ADBR2 [4]: did not inhibit the Gs pathway
